Patent EP4741383A1, “COMPOUND AND USE THEREOF AS ANTI-CANCER DRUG” (Tyligand Bioscience (Shanghai) Limited, priority 2023, dated 2025)
Where two headings read alike, the source gives them in different places.

Molecular target: T1, CYP3A4 (Homo sapiens, UniProt P08684)
T1 construct: tissue Corning or Xenotech; host or cells: human liver microsomes
Assay: CYP450 inhibition in human liver microsomes, CYP3A4 (midazolam and testosterone substrates)
Format: in vitro ADME
Excerpt: According to standard methods in the field for the study of cytochrome P450 enzyme systems, such as the method described in Kerns, Edward H. and Di Li et al., Drug-like Properties: Concepts, Structure Design and Methods: from ADME to Toxicity Optimization (2008), San Diego, Academic Press, and Lin, Tong et al., In Vitro Assessment of Cytochrome P450 Inhibition: Strategies for Increasing LC/MS-Based Assay Throughput Using a One-Point IC50 Method and Multiplexing High-Performance Liquid Chromatography (J. Pharm. Sci. 2007, 96 (9), 2485). The inhibitory effect of the disclosed compounds on the cytochrome P450 enzyme system was similarly examined below.
Human liver microsomes were purchased from Corning or Xenotech. The test compounds were evaluated by detecting the metabolism of substrates for different Cyp450 isoforms by human liver microsomes.
0.1 M potassium phosphate buffer (K-buffer, pH 7.4) was pre-warmed.
100 mM K-buffer was prepared by mixing 9.5 mL of stock solution A (1 M potassium dihydrogen phosphate, prepared by dissolving 136.5 g of potassium dihydrogen phosphate in 1 L of Milli-Q water) with 40.5 mL of stock solution B (1 M potassium hydrogen phosphate, prepared by dissolving 174.2 g of potassium hydrogen phosphate in 1 L of Milli-Q water). The total volume was adjusted to 500 mL with Milli-Q water, and the buffer was titrated to pH 7.4 using KOH or H3PO4.
Test compound solution and specific inhibitor solution (400× dilution) were prepared in a 96-well plate. For the test compound, 8 µL of 10 mM test compound was transferred into 12 µL of ACN. For specific inhibitors of CYP1A2, CYP2C9, and CYP2D6: 12 µL of 1 mM α-naphthoflavone, 10 µL of 40 mM sulfaphenazole, 10 µL of 10 mM quinidine, and 8 µL of DMSO were mixed. For specific inhibitors of CYP3A4, CYP2B6, CYP2C8, and CYP2C19: 8 µL of DMSO stock solution was added to 12 µL of ACN.
A 4× diluted NADPH solution was prepared by dissolving 66.7 mg of NADPH in 10 mL of 0.1 M K-buffer (pH 7.4). Human liver microsome (HLM) solutions were prepared in K-buffer, wherein 0.1 mg/mL for CYP1A2, CYP2C9, CYP2D6, CYP3A4, and CYP2B6, 0.5 mg/mL for CYP2C19, 0.2 mg/mL for CYP2C8. 4× diluted substrate dilution solutions (2 mL per isozyme) were prepared in K-buffer (HLM was added on ice if required) with the following concentrations: 120 µM for CYP1A2, 40 µM for CYP2C9, 140 µM with 1.6 mg/mL HLM for CYP2C19, 40 µM for CYP2D6, 320 µM and 20 µM for CYP3A4 (two concentrations), 280 µM for CYP2B6, 40 µM with 0.4 mg/mL HLM for CYP2C8.
A 0.2 mg/mL HLM solution was prepared on ice (by adding 10 µL of 20 mg/mL stock to 990 µL of 0.1 M K buffer). To the assay wells, 400 µL of the 0.2 mg/mL HLM solution was added, followed by 2 µL of the 400× diluted test compound solution, which was added on ice to the designated wells. To the assay wells, 200 µL of the 0.2 mg/mL HLM solution was added, followed by 1 µL of the specific inhibitor solution, which was added on ice to the designated wells. The following solutions were added in duplicate to the 96-well analysis plate kept on ice: 30 µL of the 2× diluted test compound solution and the specific inhibitor solution were added to the 0.2 mg/mL HLM solution, 15 µL of the 4× diluted substrate solution was added. The 96-well assay plate and the NADPH solution were pre-incubated at 37 °C for 5 min. The reaction was initiated by adding 15 µL of the pre-warmed 8 mM NADPH solution to the assay plate. Reactions were performed at 37 °C for the following durations according to the P450 isoform: 5 min for CYP3A4, 10 min for CYP1A2, CYP2B6, CYP2C8, CYP2C9, and CYP2D6, 45 min for CYP2C19. Reactions were terminated by adding 120 µL of ACN containing internal standards. The final internal standard concentrations were: 0.1 µM for CYP2C19, CYP1A2, CYP3A4 (midazolam), and CYP2D6, 200 ng/mL for CYP3A4 (testosterone), 0.31 µM for CYP2C9, 0.36 µM (100 ng/mL) for CYP2B6, 40 ng/mL for CYP2C8. […]

[1] = pH 7.4, probe midazolam, midazolam substrate, read-out: % CYP inhibition @ 10 µM 3A4 (midazolam)
[2] = pH 7.4, probe testosterone, testosterone substrate, read-out: % CYP inhibition @ 10 µM 3A4 (testosterone)

T1 sequence (P08684 whole entry): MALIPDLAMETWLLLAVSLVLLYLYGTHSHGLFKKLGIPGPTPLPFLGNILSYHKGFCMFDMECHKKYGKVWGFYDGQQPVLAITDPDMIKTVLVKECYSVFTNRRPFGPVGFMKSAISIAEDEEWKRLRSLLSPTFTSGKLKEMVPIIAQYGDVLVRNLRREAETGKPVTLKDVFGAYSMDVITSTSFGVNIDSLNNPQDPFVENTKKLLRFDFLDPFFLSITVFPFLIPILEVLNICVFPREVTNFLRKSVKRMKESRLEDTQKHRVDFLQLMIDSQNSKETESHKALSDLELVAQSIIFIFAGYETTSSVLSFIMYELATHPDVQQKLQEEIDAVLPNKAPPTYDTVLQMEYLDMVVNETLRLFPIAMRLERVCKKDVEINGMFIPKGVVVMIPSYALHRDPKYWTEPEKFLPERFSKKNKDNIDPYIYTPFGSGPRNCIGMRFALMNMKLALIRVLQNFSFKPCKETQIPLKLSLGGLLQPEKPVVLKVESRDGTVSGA

`O=C(Nc1ccc(-c2cc3cc(F)c(-c4nnn[nH]4)cc3n2C2CCC2)cc1)C(=O)Nc1ccc(N2CCC(CO)CC2)cc1` [Example 23] was tested, and the inhibition at 5 min, 10 µM [1] was 5.28% and the inhibition at 5 min, 10 µM [2] was -22.6%.

Work on `CC1(n2c(-c3ccc(NC(=O)C(=O)Nc4ccc(N5CCC6(CCOC6)CC5)cc4)cc3)cc3cc(F)c(-c4nnn[nH]4)cc32)CCC1` [Example 68] yielded an inhibition at 5 min, 10 µM [1] of -10.2% and an inhibition at 5 min, 10 µM [2] of 2.46%.

For `O=C(Nc1ccc(-c2cc3cc(F)c(-c4nnn[nH]4)cc3n2C2CCC2)cc1)C(=O)Nc1ccc(N2CCC3(CCOC3)CC2)cc1` [Example 67], the inhibition at 5 min, 10 µM [1] was 13% and the inhibition at 5 min, 10 µM [2] was -0.87%.
